Measurements as given in patent US10227359B2, “Tricyclic heterocycles as bet protein inhibitors” (Incyte Corporation, priority 2014, dated 2019).

Columns and labels:
C-myc in KMS.12.BM cells = assay: KMS.12.BM C-myc ELISA Assay; assay type: cell-based; conditions: Homo sapiens, 2 h
Protocol: KMS.12.BM C-myc ELISA Assay
KMS.12.BM cell line (human myeloma) was purchased from JCRB (Osaka, Japan) and maintained in RPMI with 10% FBS culture medium. To measure the C-myc inhibitory activity of the compounds, the KMS.12.BM cells are plated in the RPMI culture medium at 75000 cells/well/per 200 μL into a 96-well flat bottom polystyrene tissue culture plate (Corning through VWR, NJ), in the presence or absence of a concentration range of test compounds. After 2 h, cells are pelleted and lysed with Cell Extraction Buffer (BioSource, Carlsbad, Calif.) in the presence of protease inhibitors (Life Technologies, Grand Island, N.Y. and Sigma, St Louis, Mo.). Clarified lyses are tested in a C-myc commercial ELISA (Life Technologies, Grand Island, N.Y.). Compound inhibition is determined relative to cells cultured with no drug and the IC50 reported as the compound concentration required for 50% C-myc inhibition.

[1] = system: KMS.12.BM cell line (human myeloma); assay: KMS.12.BM Cell Viability Assay; assay type: cell-based; conditions: 72 h, KMS.12.BM cells, 3 days, Cell Titer-GLO, read-out: KMS cellular IC50
Protocol: Example B1: KMS.12.BM Cell Viability Assay
KMS.12.BM cell line (human myeloma) was purchased from JCRB (Osaka, Japan) and maintained in RPMI with 10% FBS culture medium. To measure the cytotoxic activity of the compounds through ATP quantitation, the KMS.12.BM cells are plated in the RPMI culture medium at 5000 cells/well/per 100 μL into a 96-well polystyrene clear black tissue culture plate (Greiner-bio-one through VWR, NJ), in the presence or absence of a concentration range of test compounds. After 3 days, […] Cell Titer-GLO Luminescent (Promega, Madison, Wis.) cell culture agent is added to each well for 10 min. at room temperature to stabilize the luminescent signal. This determines the number of viable cells in culture based on quantitation of the ATP present, which signals the presence of metabolically active cells. Luminescence is measured with the Top Count 384 (Packard Bioscience through Perkin Elmer, Boston, Mass.). Compound inhibition is determined relative to cells cultured with no drug and the IC50 reported as the compound concentration required for 50% cell death.

SMILES | IC50 (C-myc in KMS.12.BM cells) | IC50 [1]
CC(=O)N1C[C@@H](C)N(c2nc3ccc(-c4c(C)noc4C)c4c3n2[C@@H](c2ccccn2)CO4)[C@@H](C)C1 (atropisomer, axis not shown) [Example 2, (4S)-2-[(2R,6S)-4-Acetyl-2,6-dimethylpiperazin-1-yl]-7-(3,5-dimethylisoxazol-4-yl)-4-pyridin-2-yl-4,5-dihydroimidazo[1,5,4-de][1,4]benzoxazine] | ≤ 0.1 µM | ≤ 0.1 µM
Cc1noc(C)c1-c1ccc2nc(N3CCN(C(=O)C(C)C)CC3)n3c2c1OC[C@@H]3c1ccccn1 [Example 1, (4S)-7-(3,5-Dimethylisoxazol-4-yl)-2-(4-isobutyrylpiperazin-1-yl)-4-pyridin-2-yl-4,5-dihydroimidazo[1,5,4-de][1,4]benzoxazine] | ≤ 0.1 µM | ≤ 0.1 µM
CC(=O)N1CCN(c2nc3ccc(-c4c(C)noc4C)c4c3n2[C@@H](c2ccccn2)CO4)[C@@H](C)C1 [Example 3, (4S)-2-[(2S)-4-acetyl-2-methylpiperazin-1-yl]-7-(3,5-dimethylisoxazol-4-yl)-4-pyridin-2-yl-4,5-dihydroimidazo[1,5,4-de][1,4]benzoxazine] | ≤ 0.1 µM | ≤ 0.1 µM
CC(=O)N1CC2CC1CN2c1nc2ccc(-c3c(C)noc3C)c3c2n1[C@@H](c1ccccn1)CO3 (stereo partly drawn) [Example 4, (4S)-2-(5-acetyl-2,5-diazabicyclo[2.2.1]hept-2-yl)-7-(3,5-dimethylisoxazol-4-yl)-4-pyridin-2-yl-4,5-dihydroimidazo[1,5,4-de][1,4]benzoxazine] | ≤ 0.1 µM | ≤ 0.1 µM
CC(=O)NC1(C)CCN(c2nc3ccc(-c4c(C)noc4C)c4c3n2[C@@H](c2ccccn2)CO4)CC1 [Example 5, N-{1-[(4S)-7-(3,5-dimethylisoxazol-4-yl)-4-pyridin-2-yl-4,5-dihydroimidazo[1,5,4-de][1,4]benzoxazin-2-yl]-4-methylpiperidin-4-yl}acetamide] | ≤ 0.1 µM | ≤ 0.1 µM
CC(=O)N1CCN(c2nc3ccc(-c4c(C)noc4C)c4c3n2[C@@H](c2ccccn2)CO4)C[C@@H]1C [Example 7, (4S)-2-[(3S)-4-acetyl-3-methylpiperazin-1-yl]-7-(3,5-dimethylisoxazol-4-yl)-4-pyridin-2-yl-4,5-dihydroimidazo[1,5,4-de][1,4]benzoxazine] | ≤ 0.1 µM | ≤ 0.1 µM
CCC(=O)N1CCN(c2nc3ccc(-c4c(C)noc4C)c4c3n2[C@@H](c2ccccn2)CO4)C[C@@H]1C [Example 8, (4S)-7-(3,5-dimethylisoxazol-4-yl)-2-[(3S)-3-methyl-4-propionylpiperazin-1-yl]-4-pyridin-2-yl-4,5-dihydroimidazo[1,5,4-de][1,4]benzoxazine] | ≤ 0.1 µM | ≤ 0.1 µM
Cc1noc(C)c1-c1ccc2nc(N3CCN(C(=O)C(C)C)[C@@H](C)C3)n3c2c1OC[C@@H]3c1ccccn1 [Example 9, (4S)-7-(3,5-dimethylisoxazol-4-yl)-2-[(3S)-4-isobutyryl-3-methylpiperazin-1-yl]-4-pyridin-2-yl-4,5-dihydroimidazo[1,5,4-de][1,4]benzoxazine] | ≤ 0.1 µM | ≤ 0.1 µM
CCCC(=O)NC1CCN(c2nc3ccc(-c4c(C)noc4C)c4c3n2[C@@H](c2ccccn2)CO4)CC1 [Example 10, N-{1-[(4S)-7-(3,5-dimethylisoxazol-4-yl)-4-pyridin-2-yl-4,5-dihydroimidazo[1,5,4-de][1,4]benzoxazin-2-yl]piperidin-4-yl}butanamide] | ≤ 0.1 µM | ≤ 0.1 µM
Cc1noc(C)c1-c1ccc2nc(N3CCC(NC(=O)C(C)(C)C)CC3)n3c2c1OC[C@@H]3c1ccccn1 [Example 11, N-{1-[(4S)-7-(3,5-dimethylisoxazol-4-yl)-4-pyridin-2-yl-4,5-dihydroimidazo[1,5,4-de][1,4]benzoxazin-2-yl]piperidin-4-yl}-2,2-dimethylpropanamide] | ≤ 0.1 µM | ≤ 0.1 µM
Cc1noc(C)c1-c1ccc2nc(N3CCC(NC(=O)C4CC4)CC3)n3c2c1OC[C@@H]3c1ccccn1 [Example 12] | ≤ 0.1 µM | ≤ 0.1 µM
Cc1noc(C)c1-c1ccc2nc(N3CCC(NC(=O)C4CCC4)CC3)n3c2c1OC[C@@H]3c1ccccn1 [Example 13, N-{1-[(4S)-7-(3,5-dimethylisoxazol-4-yl)-4-pyridin-2-yl-4,5-dihydroimidazo[1,5,4-de][1,4]benzoxazin-2-yl]piperidin-4-yl}cyclobutanecarboxamide] | ≤ 0.1 µM | ≤ 0.1 µM
CCS(=O)(=O)NC1CCN(c2nc3ccc(-c4c(C)noc4C)c4c3n2[C@@H](c2ccccn2)CO4)CC1 [Example 14, N-{1-[(4S)-7-(3,5-dimethylisoxazol-4-yl)-4-pyridin-2-yl-4,5-dihydroimidazo[1,5,4-de][1,4]benzoxazin-2-yl]piperidin-4-yl}ethanesulfonamide] | ≤ 0.1 µM | ≤ 0.1 µM
Cc1noc(C)c1-c1ccc2nc(N3CCC(N(C)C(=O)C4CCC4)CC3)n3c2c1OC[C@@H]3c1ccccn1 [Example 20, N-{1-[(4S)-7-(3,5-dimethylisoxazol-4-yl)-4-pyridin-2-yl-4,5-dihydroimidazo[1,5,4-de][1,4]benzoxazin-2-yl]piperidin-4-yl}-N-methylcyclobutanecarboxamide] | 0.1 to 1 µM | ≤ 0.1 µM
CCS(=O)(=O)N(C)C1CCN(c2nc3ccc(-c4c(C)noc4C)c4c3n2[C@@H](c2ccccn2)CO4)CC1 [Example 23, N-{1-[(4S)-7-(3,5-dimethylisoxazol-4-yl)-4-pyridin-2-yl-4,5-dihydroimidazo[1,5,4-de][1,4]benzoxazin-2-yl]piperidin-4-yl}-N-methylethanesulfonamide] | 0.1 to 1 µM | ≤ 0.1 µM

Continued, values first:

IC50 (C-myc in KMS.12.BM cells) | IC50 [1] | SMILES
≤ 0.1 µM | ≤ 0.1 µM | CC(=O)N(C)C1CCN(c2nc3ccc(-c4c(C)noc4C)c4c3n2[C@@H](c2ccccn2)CO4)CC1 [Example 6, N-{1-[(4S)-7-(3,5-dimethylisoxazol-4-yl)-4-pyridin-2-yl-4,5-dihydroimidazo[1,5,4-de][1,4]benzoxazin-2-yl]piperidin-4-yl}-N-methylacetamide]
≤ 0.1 µM | ≤ 0.1 µM | CCC(=O)N(C)C1CCN(c2nc3ccc(-c4c(C)noc4C)c4c3n2[C@@H](c2ccccn2)CO4)CC1 [Example 15, N-{1-[(4S)-7-(3,5-dimethylisoxazol-4-yl)-4-pyridin-2-yl-4,5-dihydroimidazo[1,5,4-de][1,4]benzoxazin-2-yl]piperidin-4-yl}-N-methylpropanamide]
≤ 0.1 µM | ≤ 0.1 µM | CCCC(=O)N(C)C1CCN(c2nc3ccc(-c4c(C)noc4C)c4c3n2[C@@H](c2ccccn2)CO4)CC1 [Example 16, N-{1-[(4S)-7-(3,5-dimethylisoxazol-4-yl)-4-pyridin-2-yl-4,5-dihydroimidazo[1,5,4-de][1,4]benzoxazin-2-yl]piperidin-4-yl}-N-methylbutanamide]
≤ 0.1 µM | ≤ 0.1 µM | Cc1noc(C)c1-c1ccc2nc(N3CCC(N(C)C(=O)C(C)C)CC3)n3c2c1OC[C@@H]3c1ccccn1 [Example 17, N-{1-[(4S)-7-(3,5-dimethylisoxazol-4-yl)-4-pyridin-2-yl-4,5-dihydroimidazo[1,5,4-de][1,4]benzoxazin-2-yl]piperidin-4-yl}-N,2-dimethylpropanamide]
≤ 0.1 µM | ≤ 0.1 µM | Cc1noc(C)c1-c1ccc2nc(N3CCC(N(C)C(=O)C(C)(C)C)CC3)n3c2c1OC[C@@H]3c1ccccn1 [Example 18, N-{1-[(4S)-7-(3,5-dimethylisoxazol-4-yl)-4-pyridin-2-yl-4,5-dihydroimidazo[1,5,4-de][1,4]benzoxazin-2-yl]piperidin-4-yl}-N,2,2-trimethylpropanamide]
≤ 0.1 µM | ≤ 0.1 µM | Cc1noc(C)c1-c1ccc2nc(N3CCC(N(C)C(=O)C4CC4)CC3)n3c2c1OC[C@@H]3c1ccccn1 [Example 19, N-{1-[(4S)-7-(3,5-dimelhylisoxazol-4-yl)-4-pyridin-2-yl-4,5-dihydroimidazo[1,5,4-de][1,4]benzoxazin-2-yl]piperidin-4-yl}-N-methylcyclopropanecarboxamide]
≤ 0.1 µM | ≤ 0.1 µM | Cc1noc(C)c1-c1ccc2nc(N3CCC(N(C)C(=O)N(C)C)CC3)n3c2c1OC[C@@H]3c1ccccn1 [Example 21, N-{1-[(4S)-7-(3,5-dimethylisoxazol-4-yl)-4-pyridin-2-yl-4,5-dihydroimidazo[1,5,4-de][1,4]benzoxazin-2-yl]piperidin-4-yl}-N,N′,N′-trimethylurea]
≤ 0.1 µM | ≤ 0.1 µM | Cc1noc(C)c1-c1ccc2nc(N3CCC(N(C)S(C)(=O)=O)CC3)n3c2c1OC[C@@H]3c1ccccn1 [Example 22, N-{1-[(4S)-7-(3,5-dimethylisoxazol-4-yl)-4-pyridin-2-yl-4,5-dihydroimidazo[1,5,4-de][1,4]benzoxazin-2-yl]piperidin-4-yl}-N-methylmethanesulfonamide]
